This is an account of results in paper PMC8861050, “Design, synthesis and evaluation of novel 2-oxoindoline-based acetohydrazides as antitumor agents” (Scientific Reports, 2022).

For orientation: IC50 means the concentration at which inhibition is half-maximal. For orientation: melting point means the temperature of the solid-liquid transition.

One series has as its system SW620 (colon cancer). Kind of series: SRB cytotoxicity assay, SW620. It is filed as cell-based. Conditions: Homo sapiens, SW-620, 48 h incubation, mean ± SEM of 3 independent experiments. The source says: (§1) Three human cancer cell lines: colon cancer (SW620), prostate cancer (PC3), and lung cancer (NCI-H23) were used for sceening the cytotoxicity of the compounds. The cancer cells were purchased from American Type Culture Collection (Manassas, VA, USA). Other reagents/media for cell culture were obtained from GIBCO (Grand Island, New York, USA). The testing cancer cells were culture in Dulbecco’s Modified Eagle Medium until confluence. Then, they were trypsinized and suspended at the level of 3 × 10^4 cells/mL of cell culture medium. On day 0, cancer cells were seeded at a volume of 180 µL/well of 96-well plates and incubated for 24 h at 37 °C in a 5% CO2 incubator. On day 1, 20 µL of various concentrations of testing compounds were added to each well of the 96-well plates. Chemicals were dissolved in dimethyl sulfoxide (DMSO, stock) and diluted in culture medium (1% DMSO) before adding to the culture. After 48 h incubation, the sulforhodamine B assay was used for cell density determination with slight modifications[22]–[26]. The Probits were used for the calculation of IC50 values. The reported IC50 were the averages of three independent screening (SD ≤ 10%)[27].
(§2) Two series of compounds synthesized (4a–p and 5a–f) were evaluated for their cytotoxicity against three human cancer cell lines, including SW620 (colon cancer), PC3 (prostate cancer), NCI-H23 (lung cancer), using SRB method as described previously[22] with slight modifications[23]–[26].
Background: Sulforhodamine B stains cellular protein and so reports cell mass.

In another series the test system is PC3 (prostate cancer). Kind of series: SRB cytotoxicity assay, PC3. The following applies: Homo sapiens, 48 h incubation, mean ± SEM of 3 independent experiments. In kind it is cell-based.
Description: as §1, §2

The next series deals with NCI-H23 (lung cancer). Kind of series: SRB cytotoxicity assay, NCI-H23. It is filed as cell-based. Conditions: Homo sapiens, 48 h incubation, mean ± SEM of 3 independent experiments.
Description: as §1, §2

Series [1] can be described thus: Cytotoxicity on normal mesenchymal stem cells. In kind it is cell-based. The following applies: human bone marrow-derived mesenchymal stem cells; mean ± SEM; read-out: Cytotoxicity (IC50) MSCs. As for the experimental part: Overally, 5-fluorinated compounds (4i–p and 5d–f) were slightly more cytotoxic than non-fluorinated ones (4a–h, 5a–c). For compounds in series 4a–p, it was observed that, electron-releasing substituents (–OCH3, OH) were generally better than electron-withdrawing groups (–Cl) for cytotoxicity. Especially, compounds with 2-OH substituents produced the best cytotoxicity. The addition of either 4-OCH3 or 3-allyl groups further enhanced cytotoxicity of the related compounds (4g, 4h and 4o, 4p).

Series [2] concerns U937 human lymphoma cells. Kind of series: Cell cycle analysis (PI, flow cytometry). It is filed as cell-based. The following applies: 50 µM, 24 h. The procedure: U937 human lymphoma cells (5 × 10^5/mL per well) were plated in 6-well culture plates and allowed to grow for 24 h. In our first experiment, we examined the effects of 4f, 4h, 4n, 4o, 4p, and PAC-1 on cell cycles at 50 µM. In the second experiment, we examined the dose-dependent effect of 4o at 5, 10, and 30 µM and PAC-1 at 30 µM on cell cycles. The cells were treated with compounds for 24 h, and then harvested. The harvested cells were washed twice with ice-cold PBS, fixed in 75% ice-cold ethanol, and stained with propidium iodide (PI) in the presence of RNase at room temperature for 30 min. The stained cells were analyzed for DNA content using a FACScalibur flow cytometer (BD Biosciences, San Jose, CA, USA) and the data were processed using Cell Quest Pro software (BD Biosciences).
Figure 3 Cell cycle analysis after treatment with some compounds. U937 human lymphoma cells were treated with compounds (50 µM) for 24 h. The harvested cells were stained with propidium iodide (PI) in the presence of RNase and then were analyzed for DNA content by using flow cytometry. Ten thousand cells were acquired (n = 3). UN untreated, VH vehicle (DMSO. 0.1%). Representative histograms (A) and bar graphs (B) are shown. p values were calculated using one-way ANOVA in GraphPad Software (San Diego, CA, USA). *p < 0.01 vs VH control.
Figure 4 Cell cycle analysis under treatment with different concentrations of compound 4o. U937 human lymphoma cells were treated with compound 4o at 5, 10 and 30 µM or PAC-1 (30 µM) for 24 h. The harvested cells were stained with propidium iodide (PI) in the presence of RNase and then were analyzed for DNA content by using flow cytometry. Ten thousand cells were acquired (n = 3). UN untreated, VH vehicle (DMSO. 0.1%). Representative histograms (A) and bar graphs (B) are shown. p values were calculated using one-way ANOVA in GraphPad Software (San Diego, CA, USA). *p < 0.01 vs VH control.
In general terms: In flow cytometry, cells or beads pass a laser one at a time.

Another series concerns U937 cells. Kind of series: Annexin V-FITC/PI apoptosis assay. In kind it is cell-based, human. The following applies: U937, 50 µM, 24 h. As for the experimental part: The Annexin V-FITC/PI dual staining assay was used to determine the percentage of apoptotic cells. U937 cells (5 × 10^5/mL per well) were plated in 6-well culture plates and allowed to grow for 24 h. In our first experiment, we examined the effects of 4f, 4h, 4n, 4o, 4p, and PAC-1 on apoptosis at 50 µM. In the second experiment, we examined the dose-dependent effect of 4o at 5, 10, and 30 µM and PAC-1 at 30 µM on apoptosis. The cells were treated with compounds for 24 h, and then harvested. The harvested cells were washed twice with ice-cold PBS and incubated in the dark at room temperature in […] of 1 × binding buffer containing 1 µL Annexin V-FITC and […] PI. After 15 min incubation, cells were analyzed for percentage undergoing apoptosis using a FACScalibur flow cytometer (BD Biosciences). The data were processed using Cell Quest Pro software (BD Biosciences).
Figure 5 Apoptosis (Annexin V/PI) analysis of cells after treatment with some compounds. U937 cells were treated with compounds (50 µM) for 24 h. The harvested cells were incubated with Annexin V-FITC and PI and analyzed by using flow cytometry. Ten thousand cells were acquired (n = 3). UN untreated, VH vehicle (DMSO. 0.1%). Representative dot plots (A). Live cells, left down in dot plot. Early apoptotic cells, right down. Necrotic cells, left up, Late apoptotic cells, right up. Bar graph of late apoptotic cells (B). p values were calculated using one-way ANOVA in GraphPad Software (San Diego, CA, USA). *p < 0.01 vs VH control. TEXT PRINTED IN THE PICTURE: (A) PAC-1: 10.40%; 29.30%; 12.70% | (A) 4f: 0.52%; 6.05%; 5.41% | (A) 4h: 0.89%; 13.20%; 7.67% | (A) 4n: 0.44%; 6.83%; 5.73% | (A) 4o: 0.67%; 17.30%; 8.17% | (A) 4p: 1.60%; 13.00%; 5.86% DOUBTS OF THE COPYIST ABOUT THIS PICTURE: The quadrant percentages are in small italic print over the dot plots, so 3, 5, 6, 8 and 9 cannot always be told apart. All values given are best readings. / PAC-1: 10.40%, 29.30% and 12.70% are best readings (29.30 could be 28.30) / 4f: 0.52%, 6.05% and 5.41% are best readings (6.05 could be 6.06 or 8.05) / 4h: 0.89%, 13.20% and 7.67% are best readings (0.89 could be 0.86 or 0.69) / 4n: 0.44%, 6.83% and 5.73% are best readings (6.83 could be 6.63 or 6.88) / 4o: 0.67%, 17.30% and 8.17% are best readings (8.17 could be 6.17) / 4p: 1.60%, 13.00% and 5.86% are best readings (5.86 could be 5.88 or 5.66) / The picture prints no measure for the percentages; only their quadrant position tells them apart. They are listed upper left, upper right, lower right. / The plots UN (0.70%, 2.31%, 3.03%) and VH (1.75%, 2.43%, 3.57%) are controls, not substances, and are left out of the lines.
Figure 6 Apoptosis (Annexin V/PI) analysis of cells after treatment with different concentrations of compound 4o. U937 cells were treated with compound 4o at 5, 10 and 30 µM or PAC-1 (30 µM) for 24 h. The harvested cells were incubated with Annexin V-FITC and PI and analyzed by using flow cytometry. Ten thousand cells were acquired (n = 3). UN untreated, VH vehicle (DMSO. 0.1%). Representative dot plots (A). Live cells, left down in dot plot. Early apoptotic cells, right down. Necrotic cells, left up, Late apoptotic cells, right up. Bar graph of late apoptotic cells (B). p values were calculated using one-way ANOVA in GraphPad Software (San Diego, CA, USA). *p < 0.01 vs VH control.

Consider `O=C(CN1C(=O)Cc2cc(F)ccc21)N/N=C/c1ccccc1O` [Compound 4n, (E)-N'-(2-Hydroxybenzylidene)-2-(5-fluoro-2-oxoindolin-1-yl)acetohydrazide], for which the melting point is 173 to 174 °C. Besides, half-maximal inhibition in the series with SW620 (colon cancer) (IC50) was put at 4.72 ± 0.75 µM. The same compound showed an IC50 in the series with PC3 (prostate cancer) of 5.08 ± 0.26 µM. Besides, it took 3.7 ± 0.4 µM to reach half-maximal inhibition in the series on NCI-H23 (lung cancer) (IC50). In addition, the IC50 in series [1] came to 21 ± 0.51 µM. The “Effect on cell cycle distribution” value in series [2] is listed as “accumulated U937 cells in the S phase”. For the same compound, the “Induction of apoptosis (Annexin V-FITC/PI)” value (shortened to “Induction of apoptosis”) in the series with U937 cells is “induced early, and more substantially, late apoptosis”.
As for `C=CCc1cccc(/C=N/NC(=O)CN2C(=O)Cc3ccccc32)c1O` [Compound 4h, (E)-N'-(3-Allyl-2-hydroxybenzylidene)-2-(2-oxoindolin-1-yl)acetohydrazide], the melting point was 185 to 186 °C. Moreover, in the series on SW620 (colon cancer), the IC50 was 4.21 ± 0.17 µM. This compound gave a half-maximal inhibitory concentration (IC50) in the series on PC3 (prostate cancer) of 5.65 ± 0.19 µM. Also, the IC50 in the series with NCI-H23 (lung cancer) came to 3.05 ± 0.22 µM. The IC50 in series [1] is 15.1 ± 0.93 µM. Besides, the “Effect on cell cycle distribution” value in series [2] was “accumulated U937 cells in the S phase”. In the series with U937 cells, the “Apoptotic effects compared among the representative compounds” value is “more prominent”; the “Induction of apoptosis” value was “induced early, and more substantially, late apoptosis”.
As for `O=C(CN1C(=O)Cc2ccccc21)N/N=C/c1ccccc1O` [Compound 4f, (E)-N'-(2-Hydroxybenzylidene)-2-(2-oxoindolin-1-yl)acetohydrazide], the melting point is 173 to 174 °C. The IC50 in the series on SW620 (colon cancer) came to 4.77 ± 0.53 µM. The compound further yielded an IC50 with PC3 (prostate cancer) of 7.34 ± 0.04 µM. This compound also registered an IC50 with NCI-H23 (lung cancer) of 4.3 ± 0.41 µM. Further, the IC50 in series [1] worked out at 23.2 ± 0.26 µM. The “Effect on cell cycle distribution” value in series [2] was “accumulated U937 cells in the S phase”. For the same compound, in the series on U937 cells, the “Induction of apoptosis” value was “induced early, and more substantially, late apoptosis”.
As to `C=CCc1cccc(/C=N/NC(=O)CN2C(=O)Cc3cc(F)ccc32)c1O` [Compound 4p, (E)-N'-(3-Allyl-2-hydroxybenzylidene)-2-(5-fluoro-2-oxoindolin-1-yl)acetohydrazide], the melting point is 194 to 195 °C. In addition, the IC50 in the series on SW620 (colon cancer) came to 3.65 ± 0.23 µM. The compound also had an IC50 in the series on PC3 (prostate cancer) of 5.11 ± 0.08 µM. This compound also showed an IC50 with NCI-H23 (lung cancer) of 2.7 ± 0.15 µM. Moreover, the IC50 in series [1] came to 15.7 ± 0.46 µM. In addition, the “Effect on cell cycle distribution” value in series [2] is reported as “accumulated U937 cells in the S phase”. Also, in the series on U937 cells, the “Apoptotic effects compared among the representative compounds” value is on record as “more prominent”; the “Induction of apoptosis” value was “induced early, and more substantially, late apoptosis”.
